Data set [1] addresses T1, Rabbit muscle glycogen phosphorylase a (Oryctolagus cuniculus, UniProt P00489).
T1 construct: purchased Abcam
T1 sequence (P00489 2-843 limits assumed): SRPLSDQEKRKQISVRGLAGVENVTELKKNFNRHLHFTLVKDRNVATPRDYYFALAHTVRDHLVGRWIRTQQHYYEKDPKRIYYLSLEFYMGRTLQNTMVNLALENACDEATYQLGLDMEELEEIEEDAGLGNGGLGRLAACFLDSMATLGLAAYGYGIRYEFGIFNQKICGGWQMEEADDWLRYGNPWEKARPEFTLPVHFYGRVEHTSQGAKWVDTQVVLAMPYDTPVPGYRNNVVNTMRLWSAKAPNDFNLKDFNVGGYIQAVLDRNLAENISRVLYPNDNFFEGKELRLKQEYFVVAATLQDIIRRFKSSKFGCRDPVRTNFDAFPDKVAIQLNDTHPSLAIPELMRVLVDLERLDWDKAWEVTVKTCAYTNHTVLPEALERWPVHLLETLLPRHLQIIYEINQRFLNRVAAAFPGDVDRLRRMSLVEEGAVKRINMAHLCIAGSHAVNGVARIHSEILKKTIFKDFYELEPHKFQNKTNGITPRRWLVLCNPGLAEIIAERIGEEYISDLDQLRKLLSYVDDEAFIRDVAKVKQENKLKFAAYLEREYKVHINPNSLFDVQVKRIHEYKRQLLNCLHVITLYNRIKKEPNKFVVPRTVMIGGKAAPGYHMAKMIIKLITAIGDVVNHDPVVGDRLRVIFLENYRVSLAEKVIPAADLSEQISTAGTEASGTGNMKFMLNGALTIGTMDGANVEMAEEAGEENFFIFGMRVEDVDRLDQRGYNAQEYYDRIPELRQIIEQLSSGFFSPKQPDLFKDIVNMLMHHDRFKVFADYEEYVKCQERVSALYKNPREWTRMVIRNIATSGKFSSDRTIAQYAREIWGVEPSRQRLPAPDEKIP
The data set is described as follows: Glycogen phosphorylase enzyme assay (phosphate release, malachite green). It counts as biochemical. Particulars: mean of three determinations. The procedure:
Rabbit muscle glycogen phosphorylase a (from Abcam, 0.475 mg/ mL) activity was measured in the direction of glycogen synthesis by the release of phosphate from glucose-1-phosphate using a 384-well plate at 22 °C in […] of buffer containing 50 mM Hepes (pH 7.2), 100 mM KCl, 2.5 mM EGTA, 2.5 Mm MgCl2, 0.25 Mm glucose-1-phosphate, and 1 mg/mL glycogen with a 30-min incubation time. Phosphate was measured at 620 nm, 5 minutes after the addition of […] of 1 MHCl containing 10 mg/mL ammonium molybdate and 0.38 mg/mL malachite green. Test compounds were added to the assay in […] of 14% DMSO. Compounds were tested against a deoxynojirimycin hydrochloride (Abcam) standard in 11 point concentration response curve in duplicate on two separate occasions. Data were analyzed using GraphPad Prism v.4.03, GraphPad Software, (La Jolla, CA, USA).
A nonlinear regression (curve fit) analysis with a sigmoidal dose response equation (variable slope) was applied to generate IC50 and hill slope values. […] Compounds were screened with maximal concentrations of […]. The assay was carefully monitored for signs of compound insolubility. The results are presented as mean values from three determinations.

Data set [2] has as its target α-Glucosidase from Saccharomyces cerevisiae. The data set is described as follows: α-Glucosidase inhibition assay (spectrophotometric, p-nitrophenyl-α-D-glucopyranoside). Particulars: mean ± spread, triplicate. The format is biochemical. The procedure: α-Glucosidase inhibition assay was performed spectrophotometrically. α-Glucosidase from Saccharomyces cerevisiae (Abcam, Cambridge, UK) was dissolved in phosphate buffer (pH 6.8, 50 mM). Test compounds were dissolved in DMSO. In 96-well microtiter plates, 20 µL of test sample, 20 µL of enzyme (20 mU/mL) and 135 µL of buffer were added and incubated for 15 minutes at 37 °C. After incubation, 25 µL of p-nitrophenyl-α-D-glucopyranoside (2 mM, Abcam) was added and change in absorbance was monitored for 20 min at 400 nm. Test compound was replaced by DMSO (10% final) as control. Deoxynojirimycin hydrochloride (Abcam) was used as a standard inhibitor. The assays were done in triplicate. IC50 values were calculated from non-linear regression curve of percentage inhibition versus log compound concentration.

The subject of data set [3] is Sprague-Dawley (SD) rats with streptozocin-induced diabetes. The data set is described as follows: In vivo antidiabetic screening, blood glucose level in STZ-induced diabetic rats. Details: species or system rat. The settings on record: for Blood Glucose Level, Reading 1: 15 h fasting followed by 5-mg meal, before treatment; for Blood Glucose Level, Fasting: after fasting for 15 h, pretreatment; for Blood Glucose Level, Reading 2: second day, after oral treatment 40 mg/100 g body weight followed by 5-mg meal. Here is the method: The compound (7b) was tested on Sprague-Dawley (SD) rats for the effect on the blood glucose level, as described in the experimental Section 3.8, and the results are reported in (Table 2) and (Figure 3). Blood glucose levels were measured after fasting for 15 h (fasting reading), followed by the administration of a 5-mg meal (reading 1). Moreover, a second day reading after treatment with normal saline, acarbose, or (7b) compound blood glucose level (reading 2) followed by a 5-mg meal, was measured. […] In addition, the blood glucose level after 15 h fasting followed by a meal of 5 mg (reading 1) was compared to the blood glucose levels under the same conditions, and following the administration of normal saline, acarbose or compound (7b). For the control non-diabetic non-treated group and the diabetic non- treated group, no significant difference between (readings 1 and 2) was shown. For the group of rats treated with acarbose or compound (7b) one hour before a meal, blood glucose levels decreased from 147 ± 2 to 136 ± 3.28 and 120 ± 0.88 mg/dL to 116 ± 0.57, respectively. […] Twenty male Sprague–Dawley (SD) rats were maintained in an air-conditioned room (25 °C) at a constant humidity (55–60%). All rats were provided with a standard rat diet containing 60% carbohydrate (w/w), 2% fat (w/w), 17.5% protein (w/w), 8% fiber (w/w), and water ad libitum. The experiments were performed in accordance with the internationally accepted standard ethical guidelines for laboratory animal use and care, as described in the European Community guidelines. The Institutional Animal Ethics Committee of Al-Azhar University approved the study protocols (approval No: 409/432, 3/2018). Diabetes was induced in 12 Sprague–Dawley (SD) male rats by a single intraperitoneal injection of 40 mg/kg streptozocin (STZ) dissolved in 0.1 M/L citrate buffer at a pH of 4.5. Three rats were injected with normal saline and vehicle only to serve as negative controls. The remaining diabetic rats (nine) were identified by an increase in blood glucose more than 200 ± 10 mg/dL after one week. Blood glucose levels were measured using One Touch Ultra 2 glucometer (Lifescan inc., Wayne, USA) every week for the following two weeks to confirm the diabetic status. Rats were 6–8 weeks of age and the average weight when starting the experiment was 200 ± 20 g. Twelve rats were randomly assigned to four groups. Group 1: non-diabetic non-treated (control). Group 2: Diabetic non-treated. Group 3: Diabetic and administrated acarbose before meals. Group 4: Diabetic and administrated our new compound before a meal. Briefly; the first group was injected with an IP vehicle only. The other three groups were injected with streptozocin (STZ) and developed diabetes. The second group was diabetic and untreated. The third group was diabetic rats treated with acarbose at 40 mg per 100 g body weight 30 min. before meal using oral tube. The fourth group administrated 40 mg/100 g body weight of the test compound (7b). Rats were fasted over 15 h and blood sugar levels were measured (pretreatment). For each rat, 5 mg standard rat diet was supplied to each rat and blood glucose levels were measured to detect increases after 1 hour. Rats were fed again with the same amount after 8 h. Food was removed to allow animals to fast again for 15 h. On the following day, groups 1 and two were not given any treatment, while group 3 rats were given acarbose (positive control) and group 4 were given the test compound (7b). Blood glucose levels were measured in tail vein blood samples taken from fasting rats (time point 0), then designated groups are fed either acarbose or the test compound, suspended in PBS and delivered using an oral tube. After half an hour, the rats were given five mg. Blood samples were taken after 1 hour. Blood glucose was expected to rise after meal and the effect of the drugs was evaluated according to their abilities to control post-meal excursions.

Where “and” joins values, the source holds several entries; their conditions need not be identical. Equal entries are not always repeated.

For orientation: IC50 means the concentration needed to halve the response being measured. Low readings indicate greater potency, high ones weaker potency. In data set [1], `OC[C@H]1NC[C@H](O)[C@@H](O)[C@@H]1O` [1-Deoxynojirimycin, reference compound] came in with an IC50 of 55.6 ± 110 nM.

`NS(=O)(=O)c1ccc(NC(=O)c2ccccc2NC(=O)c2ccccn2)cc1` [Compound 5a, N-(2-((4-Sulfamoylphenyl)carbamoyl)phenyl)picolinamide] had an IC50 in data set [2] of 47.7 nM.

One may read the melting point as the temperature, or range, at which the solid turns liquid. For the compound `NNC(=O)c1ccccc1NC(=O)c1ccccn1` [Compound 6, N-(2-(Hydrazinecarbonyl)phenyl)picolinamide], the melting point lay in the range of 210 to 212 °C. In data set [2] (listed as 7), 416 nM corresponded to half-maximal inhibition (IC50). In addition, in data set [1], the half-inhibitory concentration (IC50) was found to be 582 ± 580 nM.

Consider `O=C(Nc1ccccc1C(=O)Nc1ccc(S(=O)(=O)Nc2ccccn2)cc1)c1ccccn1` [Compound 5b, N-(2-((4-(N-(Pyridin-2-yl)sulfamoyl)phenyl)carbamoyl)phenyl)picolinamide], for which the IC50 was determined as 21.2 nM in data set [2] and 16.6 nM in data set [1].

On to `O=C(Nc1ccccc1C(=O)N/N=C/c1ccccn1)c1ccccn1` [Compound 7c, (E)-N-(2-(2-(Pyridin-2-ylmethylene)hydrazine-1-carbonyl)phenyl)picolinamide], for which the melting point lay within 225 to 227 °C. Moreover, it took 231 ± 570 nM to reach half-maximal inhibition in data set [2] (IC50). This compound showed an IC50 in data set [1] of 86.4 nM.

The compound `O=C(Nc1ccccc1C(=O)N/N=C/c1ccccc1)c1ccccn1` [Compound 7a, (E)-N-(2-(2-Benzylidenehydrazine-1-carbonyl)phenyl)picolinamide] showed a melting point of 205 to 207 °C. In data set [1], this compound yielded an IC50 of 208 nM.

In the case of `O=C(Nc1ccccc1C(=O)N/N=C/c1ccc(O)cc1O)c1ccccn1` [Compound 7b, (E)-N-(2-(2-(2,4-Dihydroxybenzylidene)hydrazine-1-carbonyl)phenyl)picolinamide], the melting point is 215 to 217 °C. In addition, in data set [2], inhibition was half-maximal at 17.6 nM (IC50). The “Effect on blood glucose level compared with reference drug” value in data set [3] (40 mg/100 g body weight oral before meal) is “succeeded in decreasing the blood glucose level of diabetic rats better than the reference oral antidiabetic drug, acarbose”. Besides, in data set [3], the “Blood Glucose Level, Reading 1” value was 120 ± 0.88 mg/dL; the “Blood Glucose Level, Fasting” value stood at 207 ± 0.88 mg/dL; the “Blood Glucose Level, Reading 2” value came to 116 ± 0.57 mg/dL. For the same compound, half-maximal inhibition in data set [1] (IC50) was put at 13.7 ± 30 nM.

As to `O=C(Nc1ccccc1C(=O)Nc1ccc(S(=O)(=O)Nc2nccs2)cc1)c1ccccn1` [Compound 5c, N-(2-((4-(N-(Thiazol-2-yl)sulfamoyl)phenyl)carbamoyl)phenyl)picolinamide], the melting point lay in the range of 217 to 219 °C. The compound also showed an IC50 in data set [2] of 12.5 ± 10 nM.

For the compound `C[C@H]1O[C@H](O[C@H]2[C@H](O)[C@@H](O)[C@@H](O[C@H]3[C@H](O)[C@@H](O)C(O)O[C@@H]3CO)O[C@@H]2CO)[C@H](O)[C@@H](O)[C@@H]1N[C@H]1C=C(CO)[C@@H](O)[C@H](O)[C@H]1O` (stereo partly shown) [Acarbose, reference compound], in data set [3], the “Blood Glucose Level, Reading 1” value was determined as 147 ± 2.0 mg/dL; the “Blood Glucose Level, Fasting” value is recorded as 204 ± 4.5 mg/dL; the “Blood Glucose Level, Reading 2” value came to 136 ± 3.28 mg/dL. In addition, the “Blood Glucose Level, Reading 1” value in data set [3] (listed as acarbose) was determined as 147 ± 2 mg/dL.

Compound `COc1ccc(CNC(=O)c2ccccc2NC(=O)c2ccccn2)cc1` [Compound 3b, N-(2-((4-Methoxybenzyl)carbamoyl)phenyl)picolinamide] displayed a melting point of 225 to 227 °C. The compound further registered an IC50 in data set [2] of 22.3 nM.

`O=C(Nc1ccccc1C(=O)N/N=C/c1ccc(Cl)cc1Cl)c1ccccn1` [Compound 7d, (E)-N-(2-(2-(2,4-Dichlorobenzylidene)hydrazine-1-carbonyl)phenyl)picolinamide] gave a melting point of 212 to 214 °C. The compound further came in with an IC50 in data set [2] of 78.4 ± 50 nM.

For the compound `Cc1ccc(CNC(=O)c2ccccc2NC(=O)c2ccccn2)cc1` [Compound 3e, N-(2-((4-Methylbenzyl)carbamoyl)phenyl)picolinamide], the melting point was 275 to 278 °C. The IC50 in data set [1] stood at 262 ± 10 nM.

`O=C(Nc1ccccc1C(=O)NCc1ccccc1)c1ccccn1` [Compound 3a, N-(2-(Benzylcarbamoyl)phenyl)picolinamide]: the IC50 amounted to 89.6 nM in data set [2] and 150 ± 70 nM in data set [1].

Compound `COC(=O)c1ccccc1NC(=O)c1ccccn1` [Compound 1, Methyl 2-(picolinamido)benzoate] returned a melting point of 210 to 212 °C. For the same compound, in data set [2], the IC50 is 735 nM and 736 nM. Further, the IC50 in data set [1] worked out at 541 ± 60 nM.

`O=C(Nc1ccccc1C(=O)NCc1ccc(Cl)cc1)c1ccccn1` [Compound 3d, N-(2-((4-Chlorobenzyl)carbamoyl)phenyl)picolinamide] came in with a melting point of 233 to 235 °C. The same compound yielded an IC50 in data set [2] of 94.7 nM. Also, in data set [1], the IC50 came to 177 ± 50 nM.

`O=C(Nc1ccccc1C(=O)NCc1ccc(F)cc1)c1ccccn1` [Compound 3c, N-(2-((4-Fluorobenzyl)carbamoyl)phenyl)picolinamide] displayed an IC50 in data set [1] of 86.4 ± 20 nM.
